Source: patent US4327088A, “Phosphonooxy- or glycosyloxy-substituted acrylophenones, compositions and uses thereof” (priority 1979, dated 1982)
In brackets after ≈: the same amount, converted by molar mass. Like-named read-outs stand apart in the source and are kept apart here.

Key:
rhinovirus HGP = experiment: Inhibition of viral cytopathogenic effect (rhinovirus HGP in HeLa cells); assay type: cell-based; conditions: Enterovirus, 48 h, read-out: Minimal Inhibitory Concentration against rhinovirus HGP
Experimental: Inhibition of viral cytopathogenic effect
A suspension of HeLa cells (6×10^4) was mixed with rhinovirus HGP (3×10^3 PFU) (plaque forming units) and was plated in a microtest plate where serially diluted compounds to be tested were contained. The cells were then cultured with Eagle's minimum essential medium containing 2% calf serum, 1% tryptose phosphate broth, 100 μg/ml of streptomycin sulfate and 20 unit/ml of penicillin G. Viral c.p.e. (cytopathogenic effect) was observed by a microscope after 2 days culture at 33° C
The antiviral activity of the tested compounds is expressed by the minimal inhibitory concentration at which dose viral c.p.e. is inhibited by 50% as compared to the control culture.

Acute toxicity in mice = experiment: Acute toxicity in mice; parameters: species or system ddy mice; conditions: mouse, in vivo, day 21
Coxsackie virus B1 = experiment: Antiviral activity against lethal infection of Coxsackie virus B1 in mice; assay type: in vivo, ddy mice; conditions: up to 21 days
Experimental: The antiviral activities of compounds of the invention were tested against lethal infection of Coxsackie virus B1 in mice. ddy Mice weighing about 15 g were infected intraperitoneally (i.p.) by about LD50 of the virus. The infected mice were then administered 4 times with the compounds either by oral (p.o.) or intravenous (i.v.) route at -2, 7, 22 and 31 hrs. after infection. The survivals were recorded up to 21 days.

[1] = ip, i.p. single dose, ddy mice 15 ~ 20 g, dissolved in dimethylsulfoxide, read-out: LD50, i.p. route
[2] = po, ddy mice, suspended in 0.5% carboxymethyl cellulose, read-out: LD50, p.o. route

Structure (SMILES)	IC50 (rhinovirus HGP)	LD50 at 504 h (Acute toxicity in mice; [1])	LD50 at 504 h (Acute toxicity in mice; [2])	soluble in water (Solubility in water)	% Survival (Coxsackie virus B1; 40 mg/kg × 4 p.o.)	% Survival (Coxsackie virus B1; 5 mg/kg × 4 i.v.)	% Survival (Coxsackie virus B1; 10 mg/kg × 4 i.v.)	% Survival (Coxsackie virus B1; 20 mg/kg × 4 p.o.)	% Survival (Coxsackie virus B1; 80 mg/kg × 4 p.o.)
COc1ccc(/C=C/C(=O)c2c(OC)cc(OC)cc2OC(=O)c2ccc(OC)cc2OC)cc1 [2'-(2,4-dimethoxybenzoyloxy)-4,4',6'-trimethoxychalcone]	0.03 to 0.1 µg/mL (≈ 0.0627 to 0.209 µM)	> 500 mg/kg	> 1000 mg/kg	–	–	–	–	–	–
COc1ccc(/C=C/C(=O)c2c(OC)cc(OC)cc2OC(=O)c2ccco2)cc1 [2'-(furoyloxy)-4,4',6'-trimethoxychalcone]	0.03 µg/mL (≈ 0.0735 µM)	> 500 mg/kg	> 1000 mg/kg	–	–	–	–	–	–
COc1cc(OC)c(C(=O)/C=C/c2cccs2)c(OP(=O)(O)O)c1 [2',4'-dimethoxy-6'-(phosphonooxy)-3-(2-thienyl)acrylophenone]	0.04 to 0.1 µg/mL (≈ 0.108 to 0.27 µM)	> 500 mg/kg	> 1000 mg/kg	soluble in water	–	–	–	–	–
COCOc1ccc(/C=C/C(=O)c2c(O)cc(OC)cc2OC)cc1 [2'-hydroxy-4',6'-dimethoxy-4-(methoxymethoxy)chalcone]	0.03 to 0.1 µg/mL (≈ 0.0871 to 0.29 µM)	> 500 mg/kg	> 1000 mg/kg	–	–	–	–	–	–
CC[N+](CC)(CC)CC(=O)Oc1cc(OC)cc(OC)c1C(=O)/C=C/c1ccc(OC)cc1.[Cl-] [2',4,4'-trimethoxy-6'-(triethylammonioacetoxy) chalcone chloride]	0.01 µg/mL	180 mg/kg	> 1000 mg/kg	soluble in water	–	–	–	–	–
COc1cc(OC)c(C(=O)/C=C/c2ccc(SC)cc2)c(OP(=O)(O)O)c1 [2',4'-dimethoxy-4-(methylthio)-6'-(phosphonooxy)chalcone]	0.02 µg/mL (≈ 0.0487 µM)	> 500 mg/kg	> 1000 mg/kg	soluble in water	–	–	–	–	–
COc1cc(OC)c(C(=O)/C=C/c2ccc3c(c2)OCO3)c(OP(=O)(O)O)c1 [2',4'-dimethoxy-3,4-(methylenedioxy)-6'-(phosphonooxy)chalcone]	0.06 µg/mL (≈ 0.147 µM)	> 500 mg/kg	> 1000 mg/kg	soluble in water	–	–	–	–	–
CCOc1cc(OC)cc(OP(=O)(O)O)c1C(=O)/C=C/c1ccc(OC)cc1 [2'-ethoxy-4,4'-dimethoxy-6'-(phosphonooxy)chalcone]	0.02 µg/mL (≈ 0.049 µM)	> 500 mg/kg	> 1000 mg/kg	soluble in water	30%	–	–	–	–
COc1cc(O)c(C(=O)/C=C/c2ccc3[nH]cnc3c2)c(OC)c1 [3-(5-benzimidazolyl)-2'-hydroxy-4',6'-dimethoxyacrylophenone]	0.1 to 0.3 µg/mL (≈ 0.308 to 0.925 µM)	> 100 mg/kg	> 1000 mg/kg	–	–	–	–	–	–
CCOc1ccc(/C=C/C(=O)c2c(OC)cc(OC)cc2OP(=O)(O)O)cc1 [4-ethoxy-2',4'-dimethoxy-6'-(phosphonooxy)chalcone]	0.006 to 0.02 µg/mL (≈ 0.0147 to 0.049 µM)	> 500 mg/kg	> 1000 mg/kg	soluble in water	–	–	–	–	–
COc1cc(OC)c(C(=O)/C=C/c2ccc(C)cc2)c(OP(=O)(O)O)c1 [2',4'-dimethoxy-4-methyl-6'-(phosphonooxy)chalcone]	0.02 µg/mL (≈ 0.0529 µM)	> 500 mg/kg	> 2000 mg/kg	soluble in water	–	–	–	–	–
COc1ccc(/C=C/C(=O)c2c(OC)cc(OC)cc2O[C@@H]2O[C@H](COC(C)=O)[C@@H](OC(C)=O)[C@H](OC(C)=O)[C@H]2NC(C)=O)cc1 [2'-(2-acetamido-2-deoxy-3,4,6-tri-O-acetyl-β-D-glucopyranosyloxy)-4,4',6'-trimethoxychalcone]	0.1 to 0.3 µg/mL (≈ 0.155 to 0.466 µM)	> 500 mg/kg	> 2000 mg/kg	–	–	–	–	–	–
COc1cc(OC)c(C(=O)/C=C/c2ccc(C)o2)c(OP(=O)(O)O)c1 [2',4'-dimethoxy-3-(5-methyl-2-furyl)-6'-(phosphonooxy)acrylophenone]	0.04 to 0.1 µg/mL (≈ 0.109 to 0.272 µM)	> 500 mg/kg	> 1200 mg/kg	soluble in water	–	–	–	–	–
COc1ccc(/C=C/C(=O)c2c(OC)cc(OC)cc2OC(=O)OCc2ccccc2)cc1 [2'-(benzyloxycarbonyloxy)-4,4',6'-trimethoxychalcone]	0.01 to 0.03 µg/mL (≈ 0.0223 to 0.0669 µM)	> 500 mg/kg	> 1000 mg/kg	–	–	–	–	–	–
COc1cc(O)c(C(=O)/C=C/c2ccc(OC(C)=O)cc2)c(OC)c1 [4-acetoxy-2'-hydroxy-4',6'-dimethoxychalcone]	0.3 µg/mL (≈ 0.876 µM)	> 500 mg/kg	> 1000 mg/kg	–	–	–	–	–	–
COc1ccc(/C=C/C(=O)c2c(OC)cc(OC)cc2OC(=O)c2ccc(OC)cc2)cc1 [2',4,4'-trimethoxy-6'-(4-methoxybenzoyloxy)chalcone]	0.03 to 0.1 µg/mL (≈ 0.0669 to 0.223 µM)	> 500 mg/kg	> 1000 mg/kg	–	–	–	–	–	–
COc1ccc(/C=C/C(=O)c2c(OC)cc(OC)cc2O[C@@H]2O[C@H](CO)[C@@H](O)[C@H](O)[C@H]2NC(C)=O)cc1 [2'-(2-acetamido-2-deoxy-β-D-glucopyranosyloxy)-4,4',6'-trimethoxychalcone]	3 to 10 µg/mL (≈ 5.8 to 19.3 µM)	> 300 mg/kg	> 2000 mg/kg	soluble in water	–	–	–	–	–
COc1ccc(/C=C/C(=O)c2c(OC)cc(OC)cc2OC(=O)c2ccccc2)cc1 [2'-(benzoyloxy)-4,4',6'-trimethoxychalcone]	0.03 to 0.1 µg/mL (≈ 0.0717 to 0.239 µM)	> 500 mg/kg	> 1000 mg/kg	–	–	–	–	–	–
COc1ccc(/C=C/C(=O)c2c(OC)cc(OC)cc2OP(=O)(O)O)cc1 [2',4,4'-trimethoxy-6'-(phosphonooxy)chalcone]	0.03 to 0.1 µg/mL (≈ 0.0761 to 0.254 µM)	> 500 mg/kg	> 1000 mg/kg	soluble in water	50%	20%	60%	10%	70%
CCOc1cc(OC)c(C(=O)/C=C/c2ccc(OC)cc2)c(OP(=O)(O)O)c1 [4'-ethoxy-2',4-dimethoxy-6'-(phosphonooxy)chalcone]	0.03 µg/mL (≈ 0.0735 µM)	> 500 mg/kg	> 2000 mg/kg	soluble in water	–	–	–	–	–
